Results: BindingDB's records for doi:10.1016/j.bmcl.2003.09.075 (Eli Lilly, 2003)

Assays:
[1] = molecular target: NS3 protease (Hepatitis C virus); assay: Binding affinity towards Protease using PNA assay
[2] = molecular target: NS3 protease (Hepatitis C virus); assay: Inhibitory activity against HCV protease using replicon assay […]
[3] = molecular target: NS3 protease (Hepatitis C virus); assay: Inhibitory activity against Protease using replicon assay […] at 25 uM concentration
[4] = molecular target: NS3 protease (Hepatitis C virus); assay: Inhibitory activity against HCV protease in enzyme inhibition assay

CCC(C)NC(=O)C(=O)[C@H](CC(F)F)NC(=O)[C@@H]1[C@H]2CCC[C@H]2CN1C(=O)[C@@H](NC(=O)[C@@H](NC(=O)c1cnccn1)C(C)C)C(C)(C)C (stereo partly drawn) [(1S,5S,6R)-2-((S)-3,3-Dimethyl-2-{(S)-3-methyl-2-[(pyrazine-2-carbonyl)-amino]-butyrylamino}-butyryl)-octahydro-cyclopenta[c]pyrrole-1-carboxylic acid [1-((S)-sec-butylaminooxalyl)-3,3-difluoro-propyl]-amide]
Ki [1]: 0.48 µM
IC50 [2]: 2.61 µM

CCC[C@H](NC(=O)[C@@H]1[C@H]2CCC[C@H]2CN1C(=O)[C@@H](NC(=O)[C@@H](NC(=O)c1cnccn1)C(C)C)C(C)(C)C)C(=O)C(=O)NC(C)CC (stereo partly drawn) [(1S,5S,6R)-2-((S)-3,3-Dimethyl-2-{(S)-3-methyl-2-[(pyrazine-2-carbonyl)-amino]-butyrylamino}-butyryl)-octahydro-cyclopenta[c]pyrrole-1-carboxylic acid [1-((S)-sec-butylaminooxalyl)-butyl]-amide]
Ki [1]: 0.21 µM
IC50 [3]: 3.48 µM

CC(C)[C@H](NC(=O)c1cnccn1)C(=O)N[C@H](C(=O)N1C[C@@H]2CCC[C@@H]2[C@H]1C(=O)N[C@@H](CC(F)F)C(=O)C(=O)N[C@@H](C)c1ccccc1)C(C)(C)C [(1S,5S,6R)-2-((S)-3,3-Dimethyl-2-{(S)-3-methyl-2-[(pyrazine-2-carbonyl)-amino]-butyrylamino}-butyryl)-octahydro-cyclopenta[c]pyrrole-1-carboxylic acid [3,3-difluoro-1-((S)-(S)-1-phenyl-ethylaminooxalyl)-propyl]-amide]
Ki [1]: 0.12 µM
IC50 [2]: 0.63 µM

CC(C)[C@H](NC(=O)c1cnccn1)C(=O)N[C@H](C(=O)N1C[C@@H]2CCC[C@@H]2[C@H]1C(=O)NC(CC(F)F)C(=O)C(=O)NC1CC1)C(C)C (stereo partly drawn) [(1S,5S,6R)-2-((S)-3-Methyl-2-{(S)-3-methyl-2-[(pyrazine-2-carbonyl)-amino]-butyrylamino}-butyryl)-octahydro-cyclopenta[c]pyrrole-1-carboxylic acid (1-cyclopropylaminooxalyl-3,3-difluoro-propyl)-amide]
Ki [1]: 0.22 µM
IC50 [3]: 3.78 µM

CC(C)[C@H](NC(=O)c1cnccn1)C(=O)N[C@H](C(=O)N1C[C@@H]2CCC[C@@H]2[C@H]1C(=O)N[C@@H](CC(F)F)C(=O)C(=O)N[C@@H](C)c1ccccc1)C(C)C [(1S,5S,6R)-2-((S)-3-Methyl-2-{(S)-3-methyl-2-[(pyrazine-2-carbonyl)-amino]-butyrylamino}-butyryl)-octahydro-cyclopenta[c]pyrrole-1-carboxylic acid [3,3-difluoro-1-((S)-(S)-1-phenyl-ethylaminooxalyl)-propyl]-amide]
Ki [4]: 0.4 µM
IC50 [2]: 0.91 µM
